Our source for the RP-LC retention time values is the METLIN SMRT retention time set (Domingo-Almenara et al. 2019).

SMILES strings stand for the structures.

The data set in a line: gradient 5% acetonitrile 3 min, to 50% in 2 min, to 85% in 15 min, held 3 min, 100 µL/min. To be noted: column: Zorbax Extend-C18 2.1 x 50 mm; eluents: water / acetonitrile, 0.1% formic acid. The method in brief:
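The system's dead and dwell volumes were 40 μL and 900 μL, with a Zorbax Extend-C18 column (2.1 × 50 mm, 1.8 μm) run at 100 μL/min in water and acetonitrile containing 0.1% formic acid each. Pure standards were analyzed in mixtures of ~100 molecules by HPLC–quadrupole time-of-flight mass spectrometry in positive and negative ionization mode. Retention time was assigned from computationally picked, manually inspected adduct peaks.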
As for `Cc1cc(OCC(=O)Nc2cccc(F)c2)nc(N2CCN(c3ccccc3)CC2)n1`, the RP-LC retention time turned out to be 871 s.

Compound `CCCN1C(=O)CCc2c(C)ncnc21` returned an RP-LC retention time of 611 s.

Consider `Cc1ncsc1CN1CC(n2cc(C(=O)NCC3CC3)nn2)C1`, for which the RP-LC retention time is 575 s.

For `O=C(c1ccc2ncccc2c1)N1CCC(c2nc(C3CC3)n[nH]2)CC1`, the RP-LC retention time is 491 s.

`Cc1nc(-c2csc(S(=O)(=O)N3CCCC(C(=O)NCCc4cccs4)C3)c2)no1` (stereo unspecified) returned an RP-LC retention time of 872 s.

The compound `CCNC(=O)c1cnn(-c2ccc(-c3nc(CC)no3)cn2)c1C` had an RP-LC retention time of 777 s.

`CCOC(=O)c1c(C)[nH]c(C(=O)N2CCC(CC(=O)NC(C)c3ccccc3)CC2)c1C` (stereo unspecified) displayed an RP-LC retention time of 780 s.

Compound `Cc1c(CN2CCSCC2)nnn1-c1ccc(F)cc1` displayed an RP-LC retention time of 610 s.

`CCOc1ccc(S(=O)(=O)N2CCCC(C(=O)NCc3ccccn3)C2)cc1` (stereo unspecified) displayed an RP-LC retention time of 623 s.

Turning to `CCC1CCCCN1C(=O)CN1C(=O)CCCc2cc(S(=O)(=O)N3CCC(C)CC3)ccc21` (stereo unspecified), the RP-LC retention time worked out at 1040 s.

Turning to `CCOC(=O)c1nc(N2CCN(c3ccccn3)CC2)c2ccccc2n1`, the RP-LC retention time worked out at 580 s.

`CCN(CC)CCCNC(=O)Cn1c(=O)c2cccn2c2ccccc21` showed an RP-LC retention time of 602 s.

Compound `Cc1cccc2c(=O)n(C3CCN(S(=O)(=O)c4ccccc4)CC3)cnc12` yielded an RP-LC retention time of 921 s.

`COc1ccccc1OCC1c2ccsc2CCN1C(=O)CN(CC1CC1)C(C)=O` (stereo unspecified) registered an RP-LC retention time of 828 s.

In turn, `O=C(c1ccncc1)N1CCCC(c2nc(-c3ccc(F)cc3)n[nH]2)C1` (stereo unspecified) gave an RP-LC retention time of 614 s.

In turn, `Cc1nc2cc(-c3noc(CNC(=O)c4cccs4)n3)ccc2o1` had an RP-LC retention time of 747 s.

Regarding `Cc1ccc2c(=O)c3c([nH]c2c1C)CCN(CC(=O)NC1CCCCC1)C3`, the RP-LC retention time is 619 s.

As to `O=C(Nc1ccc2c(c1)OCCO2)N1CCCCC1c1nc(CCOCC2CC2)no1` (stereo unspecified), the RP-LC retention time was 878 s.

`Cc1ccc(C)c(Cn2nc3c(S(=O)(=O)N4CCc5ccccc5C4)cccn3c2=O)c1` came in with an RP-LC retention time of 1070 s.

With `Cc1c(Cl)ccc2c(=O)c3c([nH]c12)CCN(CC(=O)Nc1cc(F)cc(F)c1)C3`, the RP-LC retention time is 664 s.

`CCCCN(C)C(=O)C1CCCN(c2ccc(-c3ccc(C)cc3)nn2)C1` (stereo unspecified) had an RP-LC retention time of 750 s.

In turn, `O=c1ccc(-c2ccc(Br)cc2)nn1Cc1nc(-c2cccs2)no1` came in with an RP-LC retention time of 1020 s.

Compound `Cc1cccc(NS(=O)(=O)c2cc3n(c2)CCCN(C)C3=O)c1C` had an RP-LC retention time of 711 s.

In the case of `CCSc1ccccc1C(=O)NCC1(CO)CC1`, the RP-LC retention time stood at 640 s.

The compound `Cc1c(Cl)cccc1S(=O)(=O)Nc1ccc(Cn2cncn2)cc1` yielded an RP-LC retention time of 775 s.

Compound `COc1ccc(-c2ccc(=O)n(Cc3nc(-c4ccccc4Cl)no3)n2)cc1` had an RP-LC retention time of 962 s.

The compound `COc1ccc(C(=O)N2CCN(c3cc(C)n4cnnc4n3)CC2)cn1` showed an RP-LC retention time of 571 s.

For `O=C(Nc1ccc(F)cc1)c1csc(-c2ccc(N3CCCC3)nc2)n1`, the RP-LC retention time was 743 s.

As for `COC(=O)N1CCN(CCNC(=O)C2(c3ccc(Cl)cc3)CCCC2)CC1`, the RP-LC retention time worked out at 592 s.

The compound `O=C(Nc1ccccc1Cl)C(=O)c1cn(CC(=O)N2CCCC2)c2ccccc12` yielded an RP-LC retention time of 1070 s.

Consider `Cc1ccccc1CSc1ncnc2nc[nH]c12`, for which the RP-LC retention time was determined as 744 s.

`O=S(=O)(CCc1ccccc1)NCC(O)Cc1ccccc1` (stereo unspecified) returned an RP-LC retention time of 792 s.

As to `c1nn2cnnc2cc1N1CCN(Cc2csc3c2CCCC3)CC1`, the RP-LC retention time is 609 s.

For the compound `O=S(=O)(c1ccc(F)cc1)N1CCc2nc(-c3ccc(F)cc3)ncc2C1`, the RP-LC retention time came out at 1070 s.

`CC(C)Cn1c(=O)c2nscc2n(CC(=O)NC2CCCC2)c1=O` yielded an RP-LC retention time of 731 s.

On to `O=C(NCc1csc(-c2cccs2)n1)C1CCN(S(=O)(=O)c2ccc(F)cc2)CC1`, for which the RP-LC retention time was 892 s.

Take `CCCNC(=O)N1CCC(c2noc(-c3ccncc3)n2)C1` (stereo unspecified): the RP-LC retention time is 642 s.

As to `Cc1ccc2[nH]cc(CCNC(=O)C(C)n3c4ccccc4c4cnn(C)c(=O)c43)c2c1` (stereo unspecified), the RP-LC retention time was found to be 906 s.

Take `Cc1ccc2nc(NC(=O)CSc3ccc(-n4cccn4)nn3)sc2c1`: the RP-LC retention time is 844 s.

Turning to `Cc1ccc(-c2cc3c(N4CCCC(C(=O)NC(C)C)C4)nccn3n2)c(C)c1` (stereo unspecified), the RP-LC retention time came to 828 s.

With `CCC(=O)N1CCc2cc(N3CC(C(=O)NCc4ccc(Cl)cc4)CC3=O)ccc21` (stereo unspecified), the RP-LC retention time was 637 s.

As for `CCOC(=O)c1ccc(Nc2nc(C(=O)OCC)nc3ccccc23)cc1`, the RP-LC retention time was 896 s.

In turn, `CC(C)n1nnc2cc(S(=O)(=O)N3CCCC(C(=O)N4CCC(C(N)=O)CC4)C3)ccc21` (stereo unspecified) had an RP-LC retention time of 652 s.

`CCCN(C)c1nccnc1OC1CCN(C(=O)CC(C)C)C1` (stereo unspecified) returned an RP-LC retention time of 835 s.

As to `COc1c(C(=O)NCc2ccccc2C)sc2cccc(F)c12`, the RP-LC retention time amounted to 1130 s.

Turning to `COCCN1C(=O)c2ccccc2C(C(=O)Nc2ccc(OC)cc2OC)C12CCCC2` (stereo unspecified), the RP-LC retention time was 871 s.

`Cc1ccccc1-c1csc(Nc2ccc(Br)cn2)n1` displayed an RP-LC retention time of 1230 s.

In the case of `O=C(NCCCN1CCCC1)C1CCN(c2nccnc2Sc2ccccc2)CC1`, the RP-LC retention time is 650 s.

In turn, `COc1cccc(-n2cc(C(=O)OCc3ccco3)c3ccccc3c2=O)c1` came in with an RP-LC retention time of 1100 s.

`COc1ccc(N2CCN(c3nc4c(c(Nc5ccccc5)n3)C(=O)CCC4)CC2)cc1`: the RP-LC retention time stood at 1210 s.

With `CC(NC(=O)c1c(O)c2cccnc2n(-c2ccccc2)c1=O)c1ccccc1` (stereo unspecified), the RP-LC retention time was 1190 s.

`COc1ccccc1-c1cc2c(=O)n(Cc3nc(-c4ccccc4OC)oc3C)ccn2n1` came in with an RP-LC retention time of 1020 s.

Compound `CCCn1c(=O)c2cc(C(=O)Nc3cc(Cl)ccc3F)nn2c2ccccc21` registered an RP-LC retention time of 1220 s.

`O=C(NC1CC1)C1(F)CCN(S(=O)(=O)c2ccccc2)CC1` returned an RP-LC retention time of 673 s.

In the case of `COc1ccc(CC(=O)NC(C)C(=O)Nc2nc3ccccc3[nH]2)cc1Cl` (stereo unspecified), the RP-LC retention time is 671 s.

In the case of `Nc1cc([N+](=O)[O-])ccc1N1C(=O)CCCC1=O`, the RP-LC retention time came out at 650 s.

With `CCCCNC(=O)CSc1nnc2c3cc(-c4ccccc4)nn3ccn12`, the RP-LC retention time amounted to 780 s.

For the compound `O=C(Nc1ccc(F)cc1)N1CCCC1c1nc(-c2ccccc2)no1` (stereo unspecified), the RP-LC retention time stood at 947 s.

Consider `Cc1ccccc1NC(=O)N1CCCC(Cn2c(C3CC3)nc3cccnc32)C1` (stereo unspecified), for which the RP-LC retention time was 656 s.

`CN(C)c1nn(CC(=O)Nc2ccc(F)cc2Cl)c(=O)c2ccccc12` showed an RP-LC retention time of 913 s.

In turn, `Cn1cc(-c2cc3n(n2)CCC(=O)N3CC(=O)NCc2ccccc2)c2ccccc21` yielded an RP-LC retention time of 798 s.

`COc1ccc(-c2nc(N(CCCN3CCOCC3)Cc3ccco3)c3ccccc3n2)cc1`: the RP-LC retention time amounted to 588 s.

The compound `CCOC(=O)c1cc(S(=O)(=O)N2CCCC2C(=O)N2CCCCC2)cn1C` (stereo unspecified) returned an RP-LC retention time of 767 s.

`Cc1cc(C(=O)Nc2c(F)c(F)c(F)c(F)c2F)n(-c2ccccc2)n1` had an RP-LC retention time of 917 s.

In turn, `CCc1nnc(NS(=O)(=O)c2ccc(NC(=O)c3ccc(Cl)s3)cc2)s1` returned an RP-LC retention time of 821 s.

For the compound `CCCCCCNc1nc(-c2ccc(OC)cc2)c(CCC(=O)O)s1`, the RP-LC retention time turned out to be 716 s.

`Cc1ccnc(SCC(=O)Nc2nc(-c3ccccc3)cs2)n1` showed an RP-LC retention time of 917 s.

For `CCc1nnc(-c2ccc3ccn(CC(=O)Nc4cc(F)ccc4F)c3c2)o1`, the RP-LC retention time was 879 s.

`COc1ccc(N2CCN(C(=O)C3CCCN(C(=O)c4cc5sccc5n4C)C3)CC2)cc1` (stereo unspecified): the RP-LC retention time was 821 s.

In the case of `COc1cc(NC(=O)C2CCN(S(=O)(=O)c3cc(-c4noc(C)n4)cs3)CC2)cc(OC)c1`, the RP-LC retention time amounted to 902 s.

The compound `CCn1cnc2ccc(-c3noc(COc4ccccc4OC)n3)cc21` registered an RP-LC retention time of 712 s.

For the compound `O=c1ccc(N2CCCN(S(=O)(=O)c3ccccc3F)CC2)nn1-c1ccc(Cl)cc1`, the RP-LC retention time worked out at 925 s.

For `CC12C(=O)N(Cc3ccccc3)C(=O)C1C1C=CC2C1` (stereo unspecified), the RP-LC retention time came out at 844 s.

In turn, `Cc1ccc(C)c(N2CCN(c3ccncc3N)CC2)c1` had an RP-LC retention time of 777 s.

With `Cc1ccc(CN2CCn3c(nn(CC4CC4)c3=O)C2)nc1`, the RP-LC retention time is 561 s.

Regarding `CC(=O)Nc1nc2ccc(CC(=O)Nc3ccc(F)cc3)cc2s1`, the RP-LC retention time was 714 s.

As for `Cc1ccc(-c2csc(Cc3nc(-c4ccc(F)cc4)no3)n2)cc1C`, the RP-LC retention time stood at 1320 s.

`CC1CCCN(S(=O)(=O)c2cccc(-c3cn4cc(Cl)ccc4n3)c2)C1` (stereo unspecified) came in with an RP-LC retention time of 999 s.

Take `O=C(NCC1CCN(C(=O)Nc2ccc(F)cc2)CC1)c1ccccc1Cl`: the RP-LC retention time was found to be 713 s.

`Cc1ccc(-c2noc(-c3ccccc3S(=O)(=O)NC3CCCC3)n2)cc1`: the RP-LC retention time was 1300 s.

The compound `O=C(CSc1ncccn1)Nc1nc(-c2ccccc2)cs1` registered an RP-LC retention time of 837 s.
